Measurements: paper PMC9886266, “New [1,2,4]triazolo[4,3-c]quinazolines as intercalative Topo II inhibitors: Design, synthesis, biological evaluation, and in silico studies” (PLOS ONE, 2023)

Test system: BAX/Bcl-2 ratio
Test: Western blot, BAX/Bcl-2 ratio
Type: cell-based, human
Conditions: HCT-116, 2.44 μM, 48 h; control = 1.00
Experimental: In comparison to the control, compound 16 elevated the level of the proapoptotic protein (BAX) by 2.18 times. […] Furthermore, compound 16 enhanced the BAX/Bcl-2 ratio by 4.38-fold in comparison to control cells.
The effects of compound 16 on the expression of BAX, and Bcl‐2 were determined using Western blot analysis [62–64]as described in Electronic Supplementary Material S2.7 in S1 Appendix. […]
for 48 h. Then, the cells were fixed in 70% ethanol at 4 °C for 12 h. After that, the cells were washed with cold PBS, incubated with 100 μl RNase A at 37 °C for 30 min, and stained with 400 μl PI in the dark at room temperature for further 30 min. The stained cells were measured using Epics XL-MCL™ Flow Cytometer (Beckman Coulter), and the data were analyzed using Flowing software (version 2.5.1, Turku Centre for Biotechnology, Turku, Finland).
S2.6. Flow cytometry analysis for apoptosis
Flow cytometry cell apoptosis analysis was used to investigate the apoptotic effect of the synthesized compounds. […] The stained cells were measured using Epics XL-MCL™ Flow Cytometer and analyzed using Flowing software. […]
The proteins expression of BAX, and Bcl‐2 were determined using Western blot analysis. […] Total protein concentrations in the supernatant were determined colorimetrically using the Pierce 660 nm Protein Assay method (Thermo Fisher Scientific, Rockford, IL), with BSA as the standard. […]

CCCNc1nc2ccccc2c2nnc(C(F)(F)F)n12 [Compound 16, N-Propyl-3-(trifluoromethyl)-[1,2,4]triazolo[4,3-c]quinazolin-5-amine]
Protein expression (normalized to β-actin) BAX/Bcl-2 ratio: 4.38 ± 0.86
